Experimental data: patent US7998987B2, “Inhibitors of c-Met and uses thereof” (Vertex Pharmaceuticals Incorporated, priority 2005, dated 2011)

Molecular target: c-Met (Homo sapiens, UniProt P08581)
Experiment: Ki determination for the inhibition of c-Met kinase activity (standard coupled enzyme system)
Format: biochemical
Settings: coupled enzyme system, 200 μM ATP, 10 μM polyGluTyr, 80 nM c-Met, 30° C.; read-out: c-Met Ki
Description: Ki Determination for the Inhibition of c-Met
Reactions were carried out in a solution containing 100 mM HEPES (pH 7.5), 10 mM MgCl2, 25 mM NaCl, 300 μM NADH, 1 mM DTT, and 1.5% DMSO. Final substrate concentrations in the assay were 200 μM ATP (Sigma Chemicals, St Louis, Mo.) and 10 μM polyGluTyr (Sigma Chemical Company, St. Louis). Reactions were carried out at 30° C. and 80 nM c-Met. Final concentrations of the components of the coupled enzyme system were 2.5 mM phosphoenolpyruvate, 300 μM NADH, 30 μg/ml pyruvate kinase and 10 μg/ml lactate dehydrogenase.
An assay stock buffer solution was prepared containing all of the reagents listed above with the exception of ATP and a test compound of the present invention. […] The reaction was initiated by the addition of 20 μL of ATP (final concentration 200 μM). Rates of reaction were obtained using a Molecular Devices Spectramax plate reader (Sunnyvale, Calif.) over 10 minutes at 30° C. The Ki values were determined from the rate data as a function of inhibitor concentration.

c-Met, sequence (P08581 25-1390): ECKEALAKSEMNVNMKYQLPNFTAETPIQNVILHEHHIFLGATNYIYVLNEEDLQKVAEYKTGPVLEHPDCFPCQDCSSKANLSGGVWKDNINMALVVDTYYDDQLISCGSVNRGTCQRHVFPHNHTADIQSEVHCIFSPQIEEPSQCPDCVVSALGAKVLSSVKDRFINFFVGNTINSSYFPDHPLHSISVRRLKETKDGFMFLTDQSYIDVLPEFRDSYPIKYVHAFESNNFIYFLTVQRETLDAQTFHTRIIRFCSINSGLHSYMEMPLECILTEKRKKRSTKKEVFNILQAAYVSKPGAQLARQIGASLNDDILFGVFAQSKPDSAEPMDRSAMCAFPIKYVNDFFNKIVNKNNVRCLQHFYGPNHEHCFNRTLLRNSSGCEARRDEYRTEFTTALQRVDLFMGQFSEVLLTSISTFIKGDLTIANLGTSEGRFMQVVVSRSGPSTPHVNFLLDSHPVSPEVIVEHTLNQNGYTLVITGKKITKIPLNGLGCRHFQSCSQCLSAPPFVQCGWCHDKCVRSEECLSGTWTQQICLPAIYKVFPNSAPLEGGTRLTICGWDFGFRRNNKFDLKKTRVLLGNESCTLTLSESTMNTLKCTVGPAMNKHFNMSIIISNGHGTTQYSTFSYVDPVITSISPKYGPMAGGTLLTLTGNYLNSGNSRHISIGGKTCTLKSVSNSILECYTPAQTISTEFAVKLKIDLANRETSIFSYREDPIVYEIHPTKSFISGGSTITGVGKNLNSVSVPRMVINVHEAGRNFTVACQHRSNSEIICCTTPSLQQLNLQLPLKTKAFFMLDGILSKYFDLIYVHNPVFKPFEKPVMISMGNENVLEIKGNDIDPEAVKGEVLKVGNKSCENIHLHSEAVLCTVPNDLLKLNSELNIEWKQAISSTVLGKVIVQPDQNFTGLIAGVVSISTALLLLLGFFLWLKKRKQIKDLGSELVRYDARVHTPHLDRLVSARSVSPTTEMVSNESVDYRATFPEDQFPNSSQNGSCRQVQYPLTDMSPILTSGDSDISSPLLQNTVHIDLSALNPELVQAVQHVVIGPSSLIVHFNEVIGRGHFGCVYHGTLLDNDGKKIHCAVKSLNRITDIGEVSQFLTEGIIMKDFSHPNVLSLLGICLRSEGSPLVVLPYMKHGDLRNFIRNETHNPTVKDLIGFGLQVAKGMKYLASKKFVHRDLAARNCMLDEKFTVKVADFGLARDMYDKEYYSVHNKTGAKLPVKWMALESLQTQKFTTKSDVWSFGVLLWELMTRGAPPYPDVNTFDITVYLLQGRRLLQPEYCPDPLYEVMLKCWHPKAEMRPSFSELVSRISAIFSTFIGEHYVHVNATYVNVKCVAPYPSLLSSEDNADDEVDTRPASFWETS

| SMILES | Ki |
| --- | --- |
| COc1ccc(Cc2nnc3ccc(-c4ccccc4)nn23)cc1OC [Compound 206, 3-(3,4-dimethoxybenzyl)-6-phenyl-[1,2,4]triazolo[4,3-b]pyridazine] | > 2000 nM |
| c1ccc(-c2ccc3nnc(Cc4ccc5c(c4)OCO5)n3n2)cc1 [Compound 207] | 100 to 2000 nM |
| c1ccc(-c2ccc3nnc(CNc4cccnc4)n3n2)cc1 [Compound 208] | > 2000 nM |
| CC(=O)Nc1ccc(NCc2nnc3ccc(-c4ccccc4)nn23)cc1 [Compound 209] | > 2000 nM |
| CC(=O)Nc1cccc(NCc2nnc3ccc(-c4ccccc4)nn23)c1 [Compound 210] | > 2000 nM |
| c1ccc(-c2ccc3nnc(CNc4ccncc4)n3n2)cc1 [Compound 211] | > 2000 nM |
| CN(C)c1ccc(Cc2nnc3ccc(-c4ccccc4)nn23)cc1 [Compound 212] | > 2000 nM |
| Oc1ccc(Cc2nnc3ccc(-c4ccccc4)nn23)cc1F [Compound 213] | 100 to 2000 nM |
| Oc1ccc(Cc2nnc3ccc(NC4CCCCC4)nn23)cc1 [Compound 214] | < 100 nM |
| Cc1cc(Nc2ccc3nnc(Cc4ccc(O)cc4)n3n2)ccc1Cl [Compound 215] | < 100 nM |
| O=c1[nH]c2ccc(Nc3ccc4nnc(Cc5ccc(O)cc5)n4n3)cc2[nH]1 [Compound 216] | < 100 nM |
| Oc1ccc(Cc2nnc3ccc(NC4c5ccccc5CC4O)nn23)cc1 (stereo not drawn) [Compound 217] | 100 to 2000 nM |
| O=c1ccn(Cc2nnc3ccc(-c4ccccc4)nn23)cc1 [Compound 218] | > 2000 nM |
| Oc1ccc(Cc2nnc3ccc(Nc4cccc(F)c4)nn23)cc1Cl [Compound 219] | < 100 nM |
| Fc1cccc(Nc2ccc3nnc(Cc4ccncc4)n3n2)c1 [Compound 220] | 100 to 2000 nM |
| N#Cc1cccc(Nc2ccc3nnc(Cc4ccc5c(c4)OCO5)n3n2)c1 [Compound 221] | < 100 nM |
| CCc1cccc(Nc2ccc3nnc(Cc4ccncc4)n3n2)c1 [Compound 222] | > 2000 nM |
| Oc1ccc(Cc2nnc3ccc(Nc4cccc(C(F)(F)F)c4)nn23)cc1 [Compound 223] | < 100 nM |
| Oc1ccc(Cc2nnc3ccc(Nc4cccc(C(F)(F)F)c4)nn23)cc1Cl [Compound 224] | < 100 nM |
| COc1ccc(Cc2nnc3ccc(Nc4cccc(C(F)(F)F)c4)nn23)cc1 [Compound 225] | 100 to 2000 nM |
| FC(F)(F)c1cccc(Nc2ccc3nnc(Cc4ccc5c(c4)OCO5)n3n2)c1 [Compound 226] | 100 to 2000 nM |

| SMILES | Ki |
| --- | --- |
| FC(F)(F)c1cccc(Nc2ccc3nnc(Cc4ccncc4)n3n2)c1 [Compound 227] | 100 to 2000 nM |
| Cc1cccc(Nc2ccc3nnc(Cc4ccc(O)c(Cl)c4)n3n2)c1 [Compound 228] | 100 to 2000 nM |
| COc1ccc(Cc2nnc3ccc(Nc4cccc(C)c4)nn23)cc1 [Compound 229] | 100 to 2000 nM |
| Cc1cccc(Nc2ccc3nnc(Cc4ccc5c(c4)OCO5)n3n2)c1 [Compound 230] | 100 to 2000 nM |
| Cc1cccc(Nc2ccc3nnc(Cc4ccncc4)n3n2)c1 [Compound 231] | > 2000 nM |
| CNC(=O)c1cccc(Nc2ccc3nnc(Cc4ccc(O)cc4)n3n2)c1 [Compound 232] | 100 to 2000 nM |
| CNC(=O)c1cccc(Nc2ccc3nnc(Cc4ccc(O)c(F)c4)n3n2)c1 [Compound 233] | 100 to 2000 nM |
| CNC(=O)c1cccc(Nc2ccc3nnc(Cc4ccc(O)c(Cl)c4)n3n2)c1 [Compound 234] | 100 to 2000 nM |
| CNC(=O)c1cccc(Nc2ccc3nnc(Cc4ccc(OC)cc4)n3n2)c1 [Compound 235] | 100 to 2000 nM |
| CNC(=O)c1cccc(Nc2ccc3nnc(Cc4ccc5c(c4)OCO5)n3n2)c1 [Compound 236] | 100 to 2000 nM |
| Oc1ccc(Cc2nnc3ccc(Nc4cccc(Cl)c4)nn23)cc1Cl [Compound 237] | < 100 nM |
| COc1ccc(Cc2nnc3ccc(Nc4cccc(Cl)c4)nn23)cc1 [Compound 238] | < 100 nM |
| Clc1cccc(Nc2ccc3nnc(Cc4ccc5c(c4)OCO5)n3n2)c1 [Compound 239] | < 100 nM |
| Clc1cccc(Nc2ccc3nnc(Cc4ccncc4)n3n2)c1 [Compound 240] | 100 to 2000 nM |
| COc1cccc(Nc2ccc3nnc(Cc4ccc(O)c(Cl)c4)n3n2)c1 [Compound 241] | 100 to 2000 nM |
| COc1ccc(Cc2nnc3ccc(Nc4cccc(OC)c4)nn23)cc1 [Compound 242] | 100 to 2000 nM |
| COc1cccc(Nc2ccc3nnc(Cc4ccc5c(c4)OCO5)n3n2)c1 [Compound 243] | 100 to 2000 nM |
| COc1cccc(Nc2ccc3nnc(Cc4ccncc4)n3n2)c1 [Compound 244] | > 2000 nM |
| Oc1ccc(Cc2nnc3ccc(Nc4cc(Cl)cc(Cl)c4)nn23)cc1F [Compound 245] | < 100 nM |
| Clc1cc(Cl)cc(Nc2ccc3nnc(Cc4ccc5c(c4)OCO5)n3n2)c1 [Compound 246] | 100 to 2000 nM |
| Clc1cc(Cl)cc(Nc2ccc3nnc(Cc4ccncc4)n3n2)c1 [Compound 247] | 100 to 2000 nM |
